Assay results published in patent publication US11459324B2, “O-glycoprotein-2-acetamido-2-deoxy-3-D-glycopyranosidase inhibitors” (BIOGEN MA INC., priority 2018, dated 2022).
pIC50: −log10 of the molar value.

molecular target: T1, Recombinant full length human OGA enzyme (Homo sapiens, UniProt O60502); assay: OGA Enzyme Inhibition Biochemical Assay; details: 1 nM OGA, 100 μM 4-MUGlcNAc (Km), pH 6.4, 90 minutes at room temperature, 10-point dose-response from 20 μM
T1 construct: Recombinant full length human OGA enzyme was purchased from Origene; purchased Origene
T1 sequence (O60502 1-916): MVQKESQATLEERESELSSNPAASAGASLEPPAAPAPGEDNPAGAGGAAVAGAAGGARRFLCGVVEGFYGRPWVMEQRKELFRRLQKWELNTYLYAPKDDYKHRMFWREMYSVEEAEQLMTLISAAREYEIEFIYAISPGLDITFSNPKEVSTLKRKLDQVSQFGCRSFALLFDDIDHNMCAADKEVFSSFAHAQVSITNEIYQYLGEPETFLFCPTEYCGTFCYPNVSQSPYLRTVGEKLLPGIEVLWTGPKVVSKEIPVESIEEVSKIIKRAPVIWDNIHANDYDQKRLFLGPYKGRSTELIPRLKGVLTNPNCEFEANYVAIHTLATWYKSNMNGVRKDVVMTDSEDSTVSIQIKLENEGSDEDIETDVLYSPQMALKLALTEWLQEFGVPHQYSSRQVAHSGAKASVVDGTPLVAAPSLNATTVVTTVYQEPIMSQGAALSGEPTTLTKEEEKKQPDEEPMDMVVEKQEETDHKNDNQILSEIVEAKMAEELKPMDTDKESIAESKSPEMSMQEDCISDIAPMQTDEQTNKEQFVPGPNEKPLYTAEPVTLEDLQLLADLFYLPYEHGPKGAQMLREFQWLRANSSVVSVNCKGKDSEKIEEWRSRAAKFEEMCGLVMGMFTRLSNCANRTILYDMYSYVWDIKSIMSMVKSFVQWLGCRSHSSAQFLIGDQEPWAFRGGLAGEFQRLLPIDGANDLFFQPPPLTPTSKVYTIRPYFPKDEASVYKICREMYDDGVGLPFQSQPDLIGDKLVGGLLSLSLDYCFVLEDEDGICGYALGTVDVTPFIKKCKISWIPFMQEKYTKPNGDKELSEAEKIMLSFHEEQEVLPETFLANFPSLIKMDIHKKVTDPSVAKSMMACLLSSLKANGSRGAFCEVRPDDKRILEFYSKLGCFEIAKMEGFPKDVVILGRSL
Experimental: OGA Enzyme Inhibition Biochemical Assay
Recombinant full length human OGA enzyme was purchased from Origene. 4-MUGlCNAc substrate was purchased from Sigma. All other reagents were purchased from Sigma or Fisher. Assay buffer consists of the McIlvaine buffer system, pH 6.4 (0.2M Na2HPO4 mixed with 0.1M citric acid) and 0.01% BSA. Reactions consist of 1 nM OGA, 100 μM 4-MUGlcNAc (Km), and compound in a final volume of 10 μl. Reactions were incubated for 90 minutes at room temperature and quenched with 40 μl of 3M glycine, pH 10 and read on a Perkin Elmer Envision plate reader (Ex: 355 nm/Em: 460 nm). Compounds were tested with a 10-point dose-response starting from 20 μM with a 4-fold dilution. Data was fit using GraphPad Prism using a 4-parameter fit with variable slope.

Row | Compound | pIC50
1 | CC(=O)Nc1ncc(CN2CCC[C@H](Cc3ccnc(C)n3)C2)s1 [Example 3-4, (R)-N-(5-((3-((2-methylpyrimidin-4-yl)methyl)piperidin-1-yl)methyl)thiazol-2-yl)acetamide] | > 9.00
2 | COc1cc(C[C@H]2C[C@@H](C)N(Cc3sc(NC(C)=O)nc3F)C2)ncn1 [Example 3-45, N-(4-fluoro-5-(((2R,4R)-4-((6-methoxypyrimidin-4-yl)methyl)-2-methylpyrrolidin-1-yl)methyl)thiazol-2-yl)acetamide] | 8.36
3 | COc1ccnc(CC2CCN(Cc3cnc(NC(C)=O)s3)C2)c1 (stereo not shown) [Example 1-21, N-(5-((3-((4-methoxypyridin-2-yl)methyl)pyrrolidin-1-yl)methyl)thiazol-2-yl)acetamide] | 7.89
4 | CC(=O)Nc1nc(F)c(CN2CCC[C@H](Cc3cc(C)nc(C)c3)C2)s1 [Example 3-25, (R)-N-(5-((3-((2,6-dimethylpyridin-4-yl)methyl)piperidin-1-yl)methyl)-4-fluorothiazol-2-yl)acetamide] | > 9.00
5 | CC(=O)Nc1ncc(CN2CC(Cc3ncc(F)cn3)CC2C)s1 (stereo not shown) [Example 2-17, N-(5-((4-((5-fluoropyrimidin-2-yl)methyl)-2-methylpyrrolidin-1-yl)methyl)thiazol-2-yl)acetamide] | 8.70
6 | CC(=O)Nc1ncc(CN2CCCC(Cn3cc(C)cn3)C2)s1 (stereo not shown) [Example 4-10, N-(5-((3-((4-methyl-1H-pyrazol-1-yl)methyl)piperidin-1-yl)methyl)thiazol-2-yl)acetamide] | 6.64
7 | CC(=O)Nc1ncc(CN2C[C@@H](Cc3ncc(F)cn3)C[C@H]2C)s1 (single isomer, unassigned) [Example 2-19] | 9.00
8 | CC(=O)Nc1ncc([C@H](C)N2CCC[C@H](Cc3ncc(F)cn3)C2)s1 (single isomer, unassigned) [Example 2-11] | 9.00
9 | CC(=O)Nc1ncc(CN2C[C@@H](Cc3ncc(F)cn3)CC[C@H]2C)s1 (single isomer, unassigned) [Example 2-24] | 5.96
10 | COc1cc(C[C@H]2CCCN(Cc3sc(NC(C)=O)nc3F)C2)ncn1 [Example 3-22, (R)-N-(4-fluoro-5-((3-((6-methoxypyrimidin-4-yl)methyl)piperidin-1-yl)methyl)thiazol-2-yl)acetamide] | > 9.00
11 | CC(=O)Nc1ncc(CN2CCCC(Cc3nc(C)cs3)C2)s1 (stereo not shown) [Example 1-34, N-(5-((3-((4-methylthiazol-2-yl)methyl)piperidin-1-yl)methyl)thiazol-2-yl)acetamide] | 8.30
12 | CCC(=O)Nc1nc(F)c(CN2CCC[C@H](Cc3ncc(F)cn3)C2)s1 [Example 3-17, (R)-N-(4-fluoro-5-((3-((5-fluoropyrimidin-2-yl)methyl)piperidin-1-yl)methyl)thiazol-2-yl)propionamide] | 8.92
13 | COc1cccc(CC2CCCN(Cc3cnc(NC(C)=O)s3)C2)n1 (stereo not shown) [Example 1-6, N-(5-((3-((6-methoxypyridin-2-yl)methyl)piperidin-1-yl)methyl)thiazol-2-yl)acetamide] | 8.70
14 | CC(=O)Nc1ncc(CN2CCC(F)(F)C(Cc3ncc(F)cn3)C2)s1 (stereo not shown) [Example 2-14, N-(5-((4,4-difluoro-3-((5-fluoropyrimidin-2-yl)methyl)piperidin-1-yl)methyl)thiazol-2-yl)acetamide] | 7.92
15 | CC(=O)Nc1nc(Cl)c(CN2CC[C@H](Cc3cc(C)nc(C)c3)C2)s1 [Example 3-38, (S)—N-(4-chloro-5-((3-((2,6-dimethylpyridin-4-yl)methyl)pyrrolidin-1-yl)methyl)thiazol-2-yl)acetamide] | 6.82
16 | CC(=O)Nc1ncc(CN2CCCC(Cc3cc(C)ccn3)C2)s1 (stereo not shown) [Example 1-45, N-(5-((3-((4-methylpyridin-2-yl)methyl)piperidin-1-yl)methyl)thiazol-2-yl)acetamide] | 7.62
17 | COc1ccnc(C[C@H]2CCN(Cc3cnc(NC(C)=O)s3)C2)n1 [Example 3-12, (R)-N-(5-((3-((4-methoxypyrimidin-2-yl)methyl)pyrrolidin-1-yl)methyl)thiazol-2-yl)acetamide] | 8.05

Row | Compound | pIC50
18 | CC(=O)Nc1ncc(CN2CCC[C@@H](Cc3ncc(F)cn3)C2)s1 [Example 2-33, N-[5-[[(3S)-3-[(5-fluoropyrimidin-2-yl)methyl]-1-piperidyl]methyl]thiazol-2-yl]acetamide] | 6.91
19 | CC(=O)Nc1ncc(CN2CCCC(Cc3ncnc4ccsc34)C2)s1 (stereo not shown) [Example 1-44, N-(5-((3-(thieno[3,2-d]pyrimidin-4-ylmethyl)piperidin-1-yl)methyl)thiazol-2-yl)acetamide] | 8.70
20 | COc1ccc(CC2CCCN(Cc3cnc(NC(C)=O)s3)C2)nc1 (stereo not shown) [Example 1-10, N-(5-((3-((5-methoxypyridin-2-yl)methyl)piperidin-1-yl)methyl)thiazol-2-yl)acetamide] | 7.70
21 | CC(=O)Nc1ncc(CN2C[C@@H](Cc3ncc(F)cn3)C[C@H]2C(F)(F)F)s1 (single isomer, unassigned) [Example 2-45] | 6.89
22 | CC(=O)Nc1ncc(CN2C[C@@H](Cc3noc(C)n3)C[C@@H]2C)s1 [Example 4-13, N-(5-(((2S,4R)-2-methyl-4-((5-methyl-1,2,4-oxadiazol-3-yl)methyl)pyrrolidin-1-yl)methyl)thiazol-2-yl)acetamide] | 8.72
23 | CC(=O)Nc1ncc(CN2CC[C@H](C)[C@@H](Cc3ncc(F)cn3)C2)s1 (single isomer, unassigned) [Example 2-38] | 7.57
24 | CCc1cc2ncnc(CC3CCCN(Cc4cnc(NC(C)=O)s4)C3)c2s1 (stereo not shown) [Example 1-42, N-(5-((3-((6-ethylthieno[3,2-d]pyrimidin-4-yl)methyl)piperidin-1-yl)methyl)thiazol-2-yl)acetamide] | 8.70
25 | CC(=O)Nc1ncc(CN2CCC[C@H](Cc3ccc(C(F)F)cn3)C2)s1 [Example 3-5, (R)-N-(5-((3-((5-(difluoromethyl)pyridin-2-yl)methyl)piperidin-1-yl)methyl)thiazol-2-yl)acetamide] | 8.70
26 | CC(=O)Nc1ncc(CN2CCCC(Cc3ccc(C)cn3)C2)s1 (stereo not shown) [Example 1-31, N-(5-((3-((5-methylpyridin-2-yl)methyl)piperidin-1-yl)methyl)thiazol-2-yl)acetamide] | 8.30
27 | CC(=O)Nc1ncc(CN2CCCC(Cc3nc(C)nc4ccsc34)C2)s1 (stereo not shown) [Example 1-43, N-(5-((3-((2-methylthieno[3,2-d]pyrimidin-4-yl)methyl)piperidin-1-yl)methyl)thiazol-2-yl)acetamide] | 8.52
28 | COc1cccc(CC2CCN(Cc3cnc(NC(C)=O)s3)C2)c1 (stereo not shown) [Example 1-14, N-(5-((3-(3-methoxybenzyl)pyrrolidin-1-yl)methyl)thiazol-2-yl)acetamide] | 7.66
29 | CC(=O)Nc1ncc(CN2CCC[C@@H]([C@@H](C)c3ncc(F)cn3)C2)s1 (single isomer, unassigned) [Example 2-29] | 9.00
30 | CCc1cc2c(CC3CCCN(Cc4cnc(NC(C)=O)s4)C3)ncnc2s1 (stereo not shown) [Example 1-41, N-(5-((3-((6-ethylthieno[2,3-d]pyrimidin-4-yl)methyl)piperidin-1-yl)methyl)thiazol-2-yl)acetamide] | 9.00
31 | CC(=O)Nc1nc(F)c(CN2C[C@H](Cc3ncc(F)cn3)C[C@H]2C)s1 [Example 3-39, N-(4-fluoro-5-(((2R,4S)-4-((5-fluoropyrimidin-2-yl)methyl)-2-methylpyrrolidin-1-yl)methyl)thiazol-2-yl)acetamide] | 6.51
32 | COc1ccnc(CC2CCCN(Cc3cnc(NC(C)=O)s3)C2)c1 (stereo not shown) [Example 1-9, N-(5-((3-((4-methoxypyridin-2-yl)methyl)piperidin-1-yl)methyl)thiazol-2-yl)acetamide] | 7.92
33 | CC(=O)Nc1ncc(CN2CCCC(F)(Cc3ncc(F)cn3)C2)s1 (stereo not shown) [Example 2-12, N-(5-((3-fluoro-3-((5-fluoropyrimidin-2-yl)methyl)piperidin-1-yl)methyl)thiazol-2-yl)acetamide] | 6.62
34 | CC(=O)Nc1nc(F)c(CN2C[C@H](Cc3noc(C)n3)CC[C@@H]2C)s1 [Example 4-15, N-(4-fluoro-5-(((2S,5S)-2-methyl-5-((5-methyl-1,2,4-oxadiazol-3-yl)methyl)piperidin-1-yl)methyl)thiazol-2-yl)acetamide] | 8.80
